Literature values, collected in patent publication US20230372315A1, “Liquid-State Pharmaceutical Composition Exhibiting Excellent Preservative Effectiveness” (ISHIHARA SANGYO KAISHA, LTD., priority 2020, published 2023).

Assays:
[1] = beyond pH8
[2] = water having pH5 or less

| solubility in water [2] | SMILES | antibacterial activity [1] |
| --- | --- | --- |
|  | OCc1ccccc1 [Benzyl alcohol] | virtually no antibacterial activity |
| virtually not dissolved | CCS(=O)(=O)Nc1ncc(C(F)(F)F)cc1NC(=O)C1CCCCC1 [N-(2-ethylsulfonylamino-5-trifluoromethyl-3-pyridyl)cyclohexanecarboxamide] |  |
